Measured values from US20160250213A1, “FORMULATIONS OF AZAINDOLE COMPOUNDS” (priority 2013, published 2016).

Key:
[1] = test system: A/New York/18/2009 (H1N1); assay: microbe, parasite or virus in culture; format: cell-based; details: Influenza A virus, H1N1, MDCK; read-out: Cell Protection Assay EC50 ± SD
[2] = test system: A/Cambodia/0371/2007 (H1N1); assay: microbe, parasite or virus in culture; format: cell-based; details: Influenza A virus, MDCK, read-out: Cell Protection Assay EC50 ± SD

O=C(O)[C@H]1C2CCC(CC2)C1Nc1nc(-c2c[nH]c3ncc(F)cc23)ncc1F (some centres unmarked) [Compound (1)]
EC50 [1]: 0.59 nM | EC50 [2]: 0.61 ± 0.33 nM
